The subject of one data set is rat duodenum. Put plainly: SPIP of MDQ-TS with or without verapamil (P-gp inhibitor). The class given is in vivo. To be noted: MDQ-TS 2.5 mg/mL, verapamil 200 μmol·L^−1. On the procedure: (§1) MDQ-TS perfusion samples at low, middle, and high concentration levels of 1.25, 2.5, and 5.0 mg·mL^−1 were prepared by separately dissolving MDQ-TS in the minimum amount of DMSO and diluted with K-R buffer solution. The amount of DMSO was 0.5% in the final perfusion solutions. C1, C2, C3, C4, DC1, and DC2 perfusion samples with the concentration equivalent to the amount contained in 2.5 mg·mL^−1 of MDQ-TS were individually prepared in the same way. Verapamil, amantadine and EDTA were directly dissolved in the MDQ-TS perfusate with terminal concentrations of 200 μmol·L^−1, 2.5 mmol·L^−1, and 2.5 mmol·L^−1, accordingly, and used for investigating the mechanisms involved for absorption.
(§2) In situ single-pass intestinal perfusion (SPIP) studies were performed using an experimental design adapted from the literature with some modifications. Briefly, male Sprague-Dawley rats weighing 180–220 g were acclimatized for at least one week before the experiment, and fasted for 18 h with free access to water before the perfusion experiment. Rats were anesthetized with an intraperitoneal injection of urethane (30 mg·kg^−1 body weight), and kept on a homeothermic blanket to maintain normal body temperature. The abdomen was opened with a midline longitudinal incision, and three segments of rat intestine (duodenum, jejunum, and ileum) of approximately 10 cm each were carefully cannulated on two ends with plastic tubing. Initially, the perfusion solution free of drug (37 °C) was pumped by peristaltic pump (BT100-1F, Longer Pump Co., Baoding, China) through the cannulated segments at a flow rate of 1 mL/min for approximately 30 min in order to clean out any residual debris. Secondly, the perfusion solution containing a known concentration of substance (C1, C2, C3, C4, DC1, DC2, and MDQ-TS) was perfused at 37 °C through the intestinal lumen at a constant flow rate of 0.2 mL/min. The first 20 min of period corresponds to steady state, i.e., when the substance is in equilibrium with the intestinal membrane. After steady state, samples were collected from distal portion of duodenum, jejunum and ileum at 10 min intervals (0–10, 10–20, 20–30, 30–40, 40–50, 50–60 min) in pre-weighted vials. Samples were immediately frozen at −20 °C until analysis by validated UPLC. During the experiment, care was taken to avoid disturbance of the circulatory system and the exposed segment was covered with a piece of sterilized gauze to keep it warm and moist by frequent application of warm (37 °C) saline. The intestinum tenue maintained its viability and intact state without disrupting the blood supply throughout the experimental period. Finally, animals were sacrificed after depth anesthesia by intraperitoneal injection of urethane, according to protocols for euthanasia in experimental animals. After death, the intestinal segment was removed for measurements of length and inside diameter.
The net water flux in the in situ perfusion studies (water absorption and efflux in the intestinal segment) was determined by gravimetric method. The effective absorption rate constant (Ka) and effective apparent permeability (Papp) of compounds in the intestinal segments were calculated according to the following mathematical expression:(1) Ka=(1−CoutQout/CinQin)Q/V (2) Papp=−Qln(CoutQout/CinQin)/2πrl where Cin and Cout are the concentration of test drug in the effluent perfusate through the inlet and outlet tube (μg·mL^−1), respectively. Qin and Qout represent the inlet and outlet volume of effluent perfusate (mL), respectively. Q is the volume flow rate of perfusion (mL·h^−1). V is the volume of the intestinal segment concerned (mL). 2πrl is the area of the mass transfer surface of intestinal segment concerned (cm^2). […]

Data set [1] relates to rat small intestine (duodenum, jejunum, ileum). Put plainly: In situ single-pass intestinal perfusion (SPIP), saponins administrated in MDQ-TS form. It counts as in vivo. The method, then:
as §1, §2
(§3) The net water flux in the in situ perfusion studies (water absorption and efflux in the intestinal segment) was determined by gravimetric method. The effective absorption rate constant (Ka) and effective apparent permeability (Papp) of compounds in the intestinal segments were calculated according to the following mathematical expression:(1) Ka=(1−CoutQout/CinQin)Q/V (2) Papp=−Qln(CoutQout/CinQin)/2πrl where Cin and Cout are the concentration of test drug in the effluent perfusate through the inlet and outlet tube (μg·mL^−1), respectively. Qin and Qout represent the inlet and outlet volume of effluent perfusate (mL), respectively. Q is the volume flow rate of perfusion (mL·h^−1). V is the volume of the intestinal segment concerned (mL). 2πrl is the area of the mass transfer surface of intestinal segment concerned (cm^2).

The test system is the same in data set [2]. As to the kind of experiment: In situ single-pass intestinal perfusion (SPIP), saponins administrated in monomer forms. The class given is in vivo. The conditions noted are these: for permeability classification: monomers, Papp > 0.12 × 10^−2 cm·min^−1 classified as completely absorbed (highly permeable). On the procedure: as §1, §2, §3
Data set [3] can be described thus: Apparent oil-water partition coefficient, shake-flask method. It counts as physicochemical. To be noted: n-octanol / phosphate buffer pH 1.2-9.0, 37 °C; Kow = log Co/(Ct−Co). On the procedure:
The equilibrium partitioning of C1, C2, C3, C4, DC1, and DC2 between organic lipid and water (Kow) was determined in our study by the traditional shake-flask method (SFM). Briefly, 0.5 mL of each saponin standard working solution (100 µg·mL^−1 in water-saturated n-octanol) was accurately measured into 5 mL centrifuge tubes, and spiked with 0.5 mL of different phosphate buffer solutions (pH: 1.2, 2.0, 3.6, 5.8, 6.8, 7.4, 7.8, and 9.0), respectively. After vortex-mixing for 45 min, the tubes were kept in a temperature-stable horizontal shaking bath (37 °C) for 24 h, and then centrifuged at 13,000 rpm for 10 min. Two hundred microliters of organic supernatant solution was measured, diluted with 800 µL of methanol, and mixed well. Ten microliters of the final solution was injected into the HPLC system (detailed experimental conditions and method validation results were not shown) for determination of the drug concentration in the n-octanol phase. The Kow values of the six saponins were calculated according to the following mathematical expression:(3) Kow=logCo/Ct−Co where Ct is the total concentration of the drug, and Co is the concentration of the drug in n-octanol phase.

Setting [4] is: MDQ-TS form 1.25 mg·mL^−1, duodenum, n = 5.
Setting [5] is: MDQ-TS form 1.25 mg·mL^−1, ileum, n = 5.
Setting [6] is: MDQ-TS form 1.25 mg·mL^−1, jejunum, n = 5.
Where [7] appears, read: MDQ-TS form 2.5 mg·mL^−1, duodenum, n = 5.
Setting [8] is: MDQ-TS form 2.5 mg·mL^−1, ileum, n = 5.
Where [9] appears, read: MDQ-TS form 2.5 mg·mL^−1, jejunum, n = 5.
[10] abbreviates: MDQ-TS form 5.0 mg·mL^−1, duodenum, n = 5.
[11] abbreviates: MDQ-TS form 5.0 mg·mL^−1, ileum, n = 5.
[12] abbreviates: MDQ-TS form 5.0 mg·mL^−1, jejunum, n = 5.
[13] abbreviates: monomer form, duodenum, concentration equivalent to 2.5 mg·mL^−1 MDQ-TS, n = 5.

The structures appear in SMILES notation. Where “and” joins values, the source holds several entries; their conditions need not be identical. Equal entries are not always repeated.

The values below come from publication PMC6150237, “Study of Absorption Characteristics of the Total Saponins from Radix Ilicis Pubescentis in an In Situ Single-Pass Intestinal Perfusion (SPIP) Rat Model by Using Ultra Performance Liquid Chromatography (UPLC)” (Molecules : A Journal of Synthetic Chemistry and Natural …, 2017).

`C[C@@H]1CC[C@]2(C(=O)O)CC[C@]3(C)C(=CC[C@@H]4[C@@]5(C)CC[C@H](O)[C@@](C)(C(=O)O)[C@@H]5CC[C@]43C)[C@@H]2[C@]1(C)O` [C1, ilexgenin A]: the “Ka increase in comparison with non-Verapamil added group” value in the data set on rat duodenum was “about 1.5 fold”. Moreover, the Ka in data set [1] (setting [4]) is 1.86 ± 0.73 ×10^−2 min^−1; in data set [1] (setting [5]) it was 0.89 ± 0.08 ×10^−2 min^−1; in data set [1] (setting [6]), 0.95 ± 0.28 ×10^−2 min^−1; in data set [1] (setting [7]) it was 1.70 ± 0.31 ×10^−2 min^−1; in data set [1] (setting [8]), 2.90 ± 0.37 ×10^−2 min^−1; in data set [1] (setting [9]) it was 2.23 ± 0.39 ×10^−2 min^−1. Besides, the Ka in data set [1] (setting [10]) is 1.68 ± 0.74 ×10^−2 min^−1; in data set [1] (setting [11]), 1.48 ± 0.76 ×10^−2 min^−1; in data set [1] (setting [12]), 2.30 ± 1.24 ×10^−2 min^−1; in data set [2] (setting [13]) it was 1.77 ± 0.17 ×10^−2 min^−1; in data set [2] (monomer form, ileum, n = 5), 1.50 ± 0.25 ×10^−2 min^−1; in data set [2] (monomer form, jejunum, n = 5) it was 1.65 ± 0.19 ×10^−2 min^−1. Besides, in data set [2], the permeability classification entry was “highly permeable”. For the same molecule, the “apparent oil-water partition coefficient (Kow)” value in data set [3] is reported as −1 to 2.
With `CC1CCC2(C(=O)OC3OC(CO)C(O)C(O)C3O)CCC3(C)C(=CCC4C5(C)CCC(O)C(C)(C(=O)O)C5CCC43C)C2C1(C)O` (stereo not drawn) [C2, ilexsaponin A1], the “Ka increase in comparison with non-Verapamil added group” value in the data set on rat duodenum was about 4.2 fold. Besides, the “Papp increase in comparison with non-Verapamil added group” value in the data set with rat duodenum is reported as “about 2.3 fold”. Besides, the Ka in data set [1] (setting [4]) is 1.10 ± 0.40 ×10^−2 min^−1; in data set [1] (setting [5]) it was 1.61 ± 0.37 ×10^−2 min^−1; in data set [1] (setting [6]), 0.74 ± 0.25 ×10^−2 min^−1; in data set [1] (setting [7]), 0.85 ± 0.20 ×10^−2 min^−1; in data set [1] (setting [8]), 1.89 ± 0.35 ×10^−2 min^−1; in data set [1] (setting [9]), 0.68 ± 0.18 ×10^−2 min^−1. The Ka in data set [1] (setting [10]) is given as 1.13 ± 0.62 ×10^−2 min^−1; in data set [1] (setting [11]), 0.85 ± 0.27 ×10^−2 min^−1; in data set [1] (setting [12]) it was 1.21 ± 0.51 ×10^−2 min^−1; in data set [2] (setting [13]) it was 1.40 ± 0.29 ×10^−2 min^−1; in data set [2] (monomer form, ileum, n = 5), 1.62 ± 0.32 ×10^−2 min^−1; in data set [2] (monomer form, jejunum, n = 5), 1.72 ± 0.16 ×10^−2 min^−1. The Papp in data set [2] (monomer form, ileum, n = 5) is on record as 0.25 ± 0.03 ×10^−2 cm·min^−1; in data set [2] (monomer form, jejunum, n = 5), 0.25 ± 0.01 ×10^−2 cm·min^−1. Moreover, in data set [2], the permeability classification entry was “highly permeable”. Moreover, the “apparent oil-water partition coefficient (Kow)” value in data set [3] is −1 to 2.
On to `C[C@H]1CC[C@]2(C(=O)O)CC[C@]3(C)C(=CC[C@@H]4[C@@]5(C)CC[C@H](O[C@@H]6OC[C@@H](O)[C@H](O)[C@H]6O[C@@H]6O[C@H](CO)[C@@H](O)[C@H](O)[C@H]6O)C(C)(C)[C@@H]5CC[C@]43C)[C@@H]2[C@]1(C)O` [C3, ilexsaponin B1], for which the “Ka increase in comparison with non-Verapamil added group” value in the data set with rat duodenum is given as about 1.2 fold. The “Papp increase in comparison with non-Verapamil added group” value in the data set on rat duodenum was about 1.4 fold. In addition, the Ka is listed as 1.16 ± 0.26 ×10^−2 min^−1 in data set [1] (setting [4]); 1.04 ± 0.11 ×10^−2 min^−1 in data set [1] (setting [5]); 0.94 ± 0.12 ×10^−2 min^−1 in data set [1] (setting [6]); 2.19 ± 0.52 ×10^−2 min^−1 in data set [1] (setting [7]); 3.77 ± 0.41 ×10^−2 min^−1 in data set [1] (setting [8]); 3.82 ± 0.49 ×10^−2 min^−1 in data set [1] (setting [9]). The Ka in data set [1] (setting [10]) was 1.80 ± 0.97 ×10^−2 min^−1; in data set [1] (setting [11]), 1.66 ± 0.95 ×10^−2 min^−1; in data set [1] (setting [12]), 2.48 ± 0.86 ×10^−2 min^−1; in data set [2] (setting [13]) it was 1.49 ± 0.36 ×10^−2 min^−1; in data set [2] (monomer form, ileum, n = 5), 1.38 ± 0.06 ×10^−2 min^−1; in data set [2] (monomer form, jejunum, n = 5) it was 1.56 ± 0.30 ×10^−2 min^−1. Moreover, the apparent permeability coefficient (Papp) in data set [1] (setting [4]) is 0.24 ± 0.10 ×10^−2 cm·min^−1; in data set [1] (setting [5]), 0.18 ± 0.01 ×10^−2 cm·min^−1; in data set [1] (setting [6]), 0.17 ± 0.04 ×10^−2 cm·min^−1; in data set [1] (setting [7]), 0.36 ± 0.06 ×10^−2 cm·min^−1; in data set [1] (setting [8]), 0.42 ± 0.03 ×10^−2 cm·min^−1; in data set [1] (setting [9]), 0.40 ± 0.13 ×10^−2 cm·min^−1. Also, the apparent permeability coefficient (Papp) in data set [1] (setting [10]) was 0.39 ± 0.24 ×10^−2 cm·min^−1; in data set [1] (setting [11]) it was 0.29 ± 0.15 ×10^−2 cm·min^−1; in data set [1] (setting [12]), 0.40 ± 0.24 ×10^−2 cm·min^−1; in data set [1] (administrated in MDQ-TS form, summary bound (except DC2 in 1.25 mg·mL^−1 MDQ-TS group)) it was over 0.0012 cm/min; in data set [2] (administered in monomer forms, summary bound), over 0.0012 cm/min; in data set [2] (setting [13]), 0.23 ×10^−2 cm·min^−1 and 0.23 ± 0.02 ×10^−2 cm·min^−1. Further, the Papp in data set [2] (monomer form, ileum, n = 5) was 0.21 ± 0.06 ×10^−2 cm·min^−1; in data set [2] (monomer form, jejunum, n = 5), 0.23 ×10^−2 cm·min^−1 and 0.23 ± 0.05 ×10^−2 cm·min^−1. Besides, in data set [2], the permeability classification result was “highly permeable”. Moreover, in data set [3], the “apparent oil-water partition coefficient (Kow)” value was −1 to 2.
